Source: ChEMBL document CHEMBL3396989, “Discovery of hydroxyaniline amides as selective Extracellular Regulated Kinase (Erk) inhibitors” (Bioorg Med Chem Lett, 2015)
pIC50, pKd: −log10 of the molar value.

How the values were obtained:
[1] = target: T1, Mitogen-activated protein kinase 1 (Homo sapiens, UniProt P28482); test: ATP competitive inhibition of activated Erk2 (unknown origin) by biochemical assay
[2] = target: T1, Mitogen-activated protein kinase 1; test: Binding affinity to non-phosphorylated Erk2 (unknown origin) by TdF assay
[3] = target: T1, Mitogen-activated protein kinase 1; test: Binding affinity to activated Erk2 (unknown origin) by TdF assay
[4] = target: T1, Mitogen-activated protein kinase 1; test: Inhibition of activated Erk2 (unknown origin) by biochemical assay; conditions: for pIC50: read-out: IC50
[5] = target: T1, Mitogen-activated protein kinase 1; test: Inhibition of non-activated Erk2 (unknown origin) using activating Mek1 and peptide substrate by coupled Erk2 assay

T1 sequence (P28482 whole entry): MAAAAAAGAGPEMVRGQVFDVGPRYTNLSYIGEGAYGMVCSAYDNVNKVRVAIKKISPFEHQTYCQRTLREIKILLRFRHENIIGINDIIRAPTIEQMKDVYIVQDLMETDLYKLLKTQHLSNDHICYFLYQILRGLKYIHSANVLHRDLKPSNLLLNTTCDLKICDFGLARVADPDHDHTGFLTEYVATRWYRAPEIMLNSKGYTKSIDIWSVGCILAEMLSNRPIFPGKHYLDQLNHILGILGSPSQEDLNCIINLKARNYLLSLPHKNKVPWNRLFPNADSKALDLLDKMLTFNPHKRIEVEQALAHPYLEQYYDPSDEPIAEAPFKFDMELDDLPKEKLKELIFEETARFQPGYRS

Row | pIC50 [4] | pIC50 [5] | other results | SMILES
1 | – | – | pIC50 [1]: 4.82; pKd [2]: 5.97; pKd [3]: 5.72 | CC(=O)c1ccc(N2CCN(C(=O)CN3CCC(C(=O)Nc4ccc(O)cc4)C3)CC2)cc1 (stereo not drawn)
2 | 4.00 | 4.72 | – | O=C(Nc1ccc(O)c(Cl)c1)[C@@H]1CCN(CC(=O)N2CCN(c3ccc(-c4ccc(F)cc4)cc3)CC2)C1
3 | – | 5.66 | IC50 [4]: Not Active | O=C(Nc1ccc(O)c(Cl)c1)[C@@H]1CCN(CC(=O)N2CCN(c3ccc(-c4cccc(F)c4)cc3)CC2)C1
4 | – | 5.92 | IC50 [4]: Not Active | O=C(Nc1ccc(O)c(Cl)c1)[C@@H]1CCN(CC(=O)N2CCN(c3ccc(-c4ccccc4F)cc3)CC2)C1
5 | 4.30 | 5.64 | – | COc1ccc(-c2ccc(N3CCN(C(=O)CN4CC[C@@H](C(=O)Nc5ccc(O)c(Cl)c5)C4)CC3)cc2)cc1
6 | 4.70 | 5.60 | – | O=C(Nc1ccc(O)c(Cl)c1)[C@@H]1CCN(CC(=O)N2CCN(c3ccc(-c4cccs4)cc3)CC2)C1
7 | 4.92 | 6.00 | – | O=C(Nc1ccc(O)c(Cl)c1)[C@@H]1CCN(CC(=O)N2CCN(c3ccc(-c4cnco4)cc3)CC2)C1
8 | 6.39 | 7.70 | – | O=C(Nc1ccc(O)c(Cl)c1)[C@@H]1CCN(CC(=O)N2CCN(c3ccc(-c4ncccn4)cc3)CC2)C1
9 | 7.00 | 8.30 | – | CCc1cnc(-c2ccc(N3CCN(C(=O)CN4CC[C@@H](C(=O)Nc5ccc(O)c(Cl)c5)C4)CC3)cc2)nc1
10 | 5.75 | 7.44 | – | O=C(Nc1ccc(O)c(Cl)c1)[C@@H]1CCN(CC(=O)N2CCN(c3ccc(-c4ncc(F)cn4)cc3)CC2)C1
11 | 5.74 | 7.14 | – | O=C(Nc1ccc(O)c(Cl)c1)[C@@H]1CCN(CC(=O)N2CCN(c3ccc(-c4cncnc4)cc3)CC2)C1
12 | 5.57 | 7.15 | – | COc1ncc(-c2ccc(N3CCN(C(=O)CN4CC[C@@H](C(=O)Nc5ccc(O)c(Cl)c5)C4)CC3)cc2)cn1
13 | 6.89 | 7.85 | – | O=C(Nc1ccc(O)c(Cl)c1)[C@@H]1CCN(CC(=O)N2CCN(c3ccc(-c4cnccn4)cc3)CC2)C1
14 | 5.03 | 6.52 | – | O=C(Nc1ccc(O)c(Cl)c1)[C@@H]1CCN(CC(=O)N2CCN(c3ccc(-c4nccs4)cc3)CC2)C1
15 | 7.00 | 8.30 | – | O=C(Nc1ccc(O)c(C(F)(F)F)c1)[C@@H]1CCN(CC(=O)N2CCN(c3ccc(-c4ncccn4)cc3)CC2)C1
16 | 5.75 | 7.44 | – | O=C(Nc1ccc(O)c(C2CC2)c1)[C@@H]1CCN(CC(=O)N2CCN(c3ccc(-c4ncccn4)cc3)CC2)C1
17 | 5.74 | 7.14 | – | CC(C)c1cc(NC(=O)[C@@H]2CCN(CC(=O)N3CCN(c4ccc(-c5ncccn5)cc4)CC3)C2)ccc1O
18 | 5.57 | 7.15 | – | O=C(Nc1ccc(O)c(F)c1)[C@@H]1CCN(CC(=O)N2CCN(c3ccc(-c4ncccn4)cc3)CC2)C1
19 | 5.22 | – | – | CC(=O)c1ccc(N2CCN(C(=O)CN3CC[C@@H](C(=O)Nc4ccc(O)cc4)C3)CC2)cc1
